Consider four molecules from patent EP0785714B2, “ANTIMICROBIAL COMPOSITION” (Moberg, Sven, priority 1994, dated 1996).

In series [1] the test system is Pityrosporum ovale. The settings on record: 50 % aqueous solution; cited from earlier work.
The test system of series [2] is Tricophyton rubrum. The series can be described thus: MIC of propylene glycol alone and mixed with lactic acid. It counts as cell-based. Particulars: propylene glycol (100%) alone. From the text: (§1) The minimal inhibitory concentration (MIC) for propylene glycol (100%) tested on the bacterium Staphylococcus aureus and the dermophyte Tricophyton rubrum dropped from 8 % to 0.15 % and 0.38 % respectively if lactic acid was mixed with propylene glycol in the ratios 3:10 or 2:3. The composition gave a minimal inhibitory effect at concentration 0.25% and 0.5 % respectively. These MIC-values should be compared with the considerably higher MIC-values of 40 %, which were obtained when propylene glycol at 20 % was combined with aluminium acetotartrate (SE 8802257-9). […] Also other concentration ratios gave stronger but not optimum effect. The antimicrobial effects were not proportionate to the degree of acidity (pH).

Series [3] concerns Staphylococcus aureus. The description is as above. It is filed as cell-based. The settings on record: propylene glycol (100%) alone.
Excerpt: as §1

The subject of series [4] is fungi and bacteria. Particulars: in vitro, cited from earlier work; for antimicrobial effect on comparison: 30 % diol.
Series [5] deals with Aspergillus niger. The experiment in a line: MIC-plate determination (agar dilution), agents D1 and D2. The settings on record: clinical isolate. It is filed as cell-based. Here is the method: (§2) A determination of the minimum inhibitory concentration (MIC) was carried out for different compositions of acid/glycol on different microorganisms.
(§3) The components included in the composition were weighed with decimal precision. A dilution series in sterile destilled water was made where the completed composition is dilution 1. Dilution 2 is 50 % of the composition, dilution 3 is 25 % etc. One thus gets a series of 100 - 50 - 25 - 12.5 - 6.3- 3.1 - 1.6 - 0.8 - 0.4 - 0.2 - 0.1 %. To said dilutions the same amount (volume) of Oxoids Isosensitest agar was added at 62.4 g medium per litre.
(§4) The Isosensitest agar is prepared and sterilized according to the maker's instructions. […] Furthermore a plate without the composition was prepared, called a blanc plate. From the different mixtures MIC-plates are moulded in sterile Petri dishes. From each agent a suspension was made corresponding to MacFarland 1. From this 0.2 ml was added to each MIC-plate and the blanc plate with a pipette. The MIC-plates were incubated in a thermostat having an optimum temperature for the agent. The MIC-value is the concentration of the composition on the MIC-plate where growth has stopped completely. Example. Agent 1 grows in 0.1 %, 0.2 %, 0.4 %, On the 0.8 %-plate the growth is weak but visible.

The subject of series [6] is Candica albicans. The experiment in a line: MIC-plate determination (agar dilution), agents A1 and A2. It is filed as cell-based. The settings on record: clinical isolate. Here is the method: as §2, §3, §4
Series [7] is described as follows: pH in the various MIC plates. It counts as physicochemical. Here is the method: as §3, §4
The test system of series [8] is Trichophyton rubrum. The series can be described thus: MIC-plate determination (agar dilution), agents C1 and C2. Particulars: clinical isolate. It is filed as cell-based. Here is the method: as §2, §3, §4
For series [9], the system named is Pityrosporum orbiculare. The series can be described thus: MIC-plate determination (agar dilution), agent B2. It is filed as cell-based. The settings on record: agent B2, Pityrosporum orbiculare (Pityrosporum ovale). Here is the method: as §2, §3, §4
The test system of series [10] is Malassezia furfur. The experiment in a line: MIC-plate determination (agar dilution), agent B1. It counts as cell-based. Particulars: agent B1, Malassezia furfur (Pityrosporum ovale). Here is the method:
as §2, §3, §4

Series [11] concerns Staphylococcus aureus. The series can be described thus: MIC-plate determination (agar dilution), agents E1 and E2. It counts as cell-based. Particulars: clinical isolate. Here is the method:
as §2, §3, §4

For series [12], the system named is Pseudomonas aeruginosa. The experiment in a line: MIC-plate determination (agar dilution), agents G1 and G2. It is filed as cell-based. Particulars: clinical isolate. Here is the method:
as §2, §3, §4

For series [13], the system named is Streptococcus pyogenes. The experiment in a line: MIC-plate determination (agar dilution), agents F1 and F2. It is filed as cell-based. The settings on record: clinical isolate. Here is the method:
as §2, §3, §4

Read-outs that look alike come from different tables or passages of the source.

With `CC(O)CO` (stereo not drawn) [Composition 1, Propylene glycol], in series [1], the “effect against Pityriasis versicolor” value is listed as “effective”. For the same molecule, the “minimal inhibitory concentration (MIC) for propylene glycol” value in series [2] and in [3] was 8% in each case. The “antimicrobial effect on comparison” value in series [4] is listed as “about as effective as 10 % hexylene glycol”.
In the case of `OCCCCO` [Composition 2, Butylene glycol], the “antimicrobial effect on comparison” value in series [4] was “about as effective as 10 % hexylene glycol”.
With `CC(O)CC(C)(C)O` (stereo not drawn) [Composition 3], the MIC-value in series [5] (agent D1, Aspergillus niger) was 6.3%; in series [5] (agent D2, Aspergillus niger), 6.3%; in series [6] (agent A1, Candica albicans) it was 6.3%; in [6] (agent A2, Candica albicans), 6.3%; in [8] (agent C1, Trichophyton rubrum), 0.8%; in series [8] (agent C2, Trichophyton rubrum) it was 0.8%. Also, the MIC-value in [9] stood at 25%; in [10] it was 25%; in series [11] (agent E1, Staphylococcus aureus) it was 12.5%; in series [11] (agent E2, Staphylococcus aureus) it was 12.5%; in series [12] (agent G1, Pseudomonas aeruginosa) it was 1.6%; in [12] (agent G2, Pseudomonas aeruginosa), 3.1%. Moreover, the MIC-value in series [13] (agent F1, Streptococcus pyogenes) is 12.5%; in series [13] (agent F2, Streptococcus pyogenes) it was 12.5%. Also, the “pH in the MIC plate” value in series [7] (MIC-plate 0.05 (% composition in Isosensitest agar)), in [7] (MIC-plate 0.1 (% composition in Isosensitest agar)), in [7] (MIC-plate 0.2 (% composition in Isosensitest agar)), in series [7] (MIC-plate 0.4 (% composition in Isosensitest agar)), in series [7] (MIC-plate 0.8 (% composition in Isosensitest agar)) and in series [7] (MIC-plate 1.6 (% composition in Isosensitest agar)) was 7 each time. In addition, the “pH in the MIC plate” value in series [7] (MIC-plate 3.1 (% composition in Isosensitest agar)), in [7] (MIC-plate 6.3 (% composition in Isosensitest agar)), in [7] (MIC-plate 12.5 (% composition in Isosensitest agar)), in [7] (MIC-plate 25 (% composition in Isosensitest agar)) and in series [7] (MIC-plate 50 (% composition in Isosensitest agar)) was 7 in each case.
As to Hexylene glycol [Composition 3], the results for the antimicrobial effect entry in [4] (1 % of the agent), in series [4] (5 % hexylene glycol) and in series [4] (10-30 % hexylene glycol) were “lacked effect”, “a certain antimicrobial effect” and “showed antimicrobial effect within 20 hours”, respectively.
